Literature values as cited in US8591947B2, “Dual controlled release dosage form” (Osmotica Kereskedelmi és Szolgáltató KFT, priority 2001, dated 2013).
Structures can show the parent of a compound that is named as a salt.

| SMILES | Solubility of component in water (U.S.P. term) |
| --- | --- |
| CCOC(=O)[C@H](CCc1ccccc1)N[C@@H](C)C(=O)N1CCC[C@H]1C(=O)O [enalapril maleate] | sparingly soluble |
| CC[C@@H](C(N)=O)N1CCCC1=O [levetiracetam] | very soluble |
| O=c1n(CCCN2CCN(c3cccc(Cl)c3)CC2)nc2ccccn12 [trazodone HCl] | sparingly soluble |
| COc1ccc2c3c1O[C@H]1C(=O)CC[C@H]4[C@@H](C2)N(C)CC[C@]314.O=C(O)C(O)C(O)C(=O)O [hydrocodone bitartrate] | soluble |
| COc1cc(N)c(Cl)cc1C(=O)NC1CCN(CCCOc2ccc(F)cc2)CC1OC (stereo not drawn) [cisapride monohydrate] | practically insoluble |
| Nc1nc2c(ncn2COCCO)c(=O)[nH]1 [acyclovir] | slightly soluble |
| CCCCc1nc(Cl)c(CO)n1Cc1ccc(-c2ccccc2-c2nn[nH]n2)cc1 [losartan potassium] | freely soluble |
| C[C@H](CS)C(=O)N1CCC[C@H]1C(=O)O [captopril] | freely soluble |
| COCCCOc1ccnc(C[S+]([O-])c2nc3ccccc3[nH]2)c1C (stereo not drawn) [rabeprazole sodium] | very soluble |
| Cc1nc2n(c(=O)c1CCN1CCC(c3noc4cc(F)ccc34)CC1)CCCC2 [risperidone] | practically insoluble |
| OC(Cn1cncn1)(Cn1cncn1)c1ccc(F)cc1F [fluconazole] | slightly soluble |
| CNS(=O)(=O)Cc1ccc2[nH]cc(CCN(C)C)c2c1 [sumatriptan] | soluble |
| COC(=O)[C@H](c1ccccc1Cl)N1CCc2sccc2C1 [clopidogrel bisulfate] | practically insoluble |
| COc1cc2nc(N3CCN(C(=O)C4COc5ccccc5O4)CC3)nc(N)c2cc1OC (stereo not drawn) [doxazosin mesylate] | slightly soluble |
| CCOC(=O)[C@H](CCc1ccccc1)N[C@H]1CCc2ccccc2N(CC(=O)O)C1=O [benazepril] | soluble |
| COCCc1ccc(OCC(O)CNC(C)C)cc1 (stereo not drawn) [metoprolol tartrate] | very soluble |
| CC(C)NCC(O)COc1cccc2[nH]ccc12 (stereo not drawn) [pindolol] | practically insoluble |
| C[C@H]1c2cccc(O)c2C(=O)C2=C(O)[C@]3(O)C(=O)C(C(N)=O)=C(O)[C@@H](N(C)C)[C@@H]3[C@@H](O)[C@@H]21 [doxycycline hydrate] | soluble |
| Cc1cc2c(s1)Nc1ccccc1N=C2N1CCN(C)CC1 [olanzapine] | practically insoluble |
| COc1ccc([C@@H]2Sc3ccccc3N(CCN(C)C)C(=O)[C@@H]2OC(C)=O)cc1 [diltiazem HCl] | freely soluble |
| Fc1ccc([C@@H]2CCNC[C@H]2COc2ccc3c(c2)OCO3)cc1 [paroxetine HCl] | slightly soluble |
| CCOC(=O)[C@H](CCc1ccccc1)N[C@@H](C)C(=O)N1[C@H](C(=O)O)C[C@@H]2CCC[C@@H]21 [ramipril] | slightly soluble |
| COc1ccc2[nH]c([S+]([O-])Cc3ncc(C)c(OC)c3C)nc2c1 (stereo not drawn) [omeprazole] | very slightly soluble |
| CN(CCOc1ccc(CC2SC(=O)NC2=O)cc1)c1ccccn1 (stereo not drawn) [rosiglitazone maleate] | soluble |
| CCC(=O)O[C@](Cc1ccccc1)(c1ccccc1)[C@H](C)CN(C)C.Cl [propoxiphene HCl] | freely soluble |
| CC(NC(C)(C)C)C(=O)c1cccc(Cl)c1 (stereo not drawn) [bupropion HCl] | soluble |
| CCC(=O)O[C@]1(C(=O)SCF)[C@H](C)C[C@H]2[C@@H]3C[C@H](F)C4=CC(=O)C=C[C@]4(C)[C@@]3(F)[C@@H](O)C[C@@]21C [fluticasone propionate] | practically insoluble |
